Test results: the NIST ThermoML archive (doi:10.1016/j.jct.2005.02.008)

Legend:
[1] = Crystal; for mass density: 298.15 K, 101.33 kPa, Pycnometric method; for Normal melting temperature: DTA; for vapor or sublimation pressure: Calculated from knudsen effusion weight loss
[2] = molar heat capacity at constant pressure; conditions: 101.33 kPa, Crystal

c1ccc(-c2nc3ccccc3[nH]2)cc1 [2-phenylbenzimidazole]
[1]
Conditions	Normal melting temperature [°C]	mass density [kg/m3]
–	191.0	1060

[2]
Conditions	molar heat capacity at constant pressure [J/K/mol]
268.15 K	185.23
270.15 K	186.33
273.15 K	188.41
275.15 K	189.51
280.15 K	193.33
285.15 K	197.27
290.15 K	201.29
295.15 K	205.63
298.15 K	208.09
300.15 K	209.51
305.15 K	215.89
310.15 K	220.71
315.15 K	224.47
320.15 K	228.09
325.15 K	231.72
330.15 K	235.41
335.15 K	238.58
340.15 K	242.27
345.15 K	245.77
350.15 K	249.26
355.15 K	252.83
360.15 K	256.06
365.15 K	259.95
370.15 K	263.64
375.15 K	266.16
380.15 K	269.14
385.15 K	272.38
390.15 K	276.33
395.15 K	280.47
400.15 K	285
405.15 K	288.95
410.15 K	292.32
415.15 K	295.82
420.15 K	300.09
425.15 K	304.1
430.15 K	308.05
435.15 K	312.13
440.15 K	316.02
445.15 K	319.51
450.15 K	322.1

c1ccc(Cc2nc3ccccc3[nH]2)cc1 [bendazol]
[1]
Conditions	Normal melting temperature [°C]	mass density [kg/m3]
–	297.4	1140

Conditions	molar heat capacity at constant pressure [J/K/mol]	vapor or sublimation pressure [kPa]
[1], 393.54 K	–	0.000125
[1], 396.81 K	–	0.000178
[1], 400.16 K	–	0.000248
[1], 402.04 K	–	0.000299
[1], 405.47 K	–	0.000419
[1], 409 K	–	0.000596
[1], 412.48 K	–	0.000829
[2], 270.15 K	215.86	–
[2], 273.15 K	218.67	–
[2], 275.15 K	220.51	–
[2], 280.15 K	223.25	–
[2], 285.15 K	227.59	–
[2], 290.15 K	228.63	–
[2], 295.15 K	228.79	–
[2], 298.15 K	228.92	–
[2], 300.15 K	229.04	–
[2], 305.15 K	231.75	–
[2], 310.15 K	233.79	–
[2], 315.15 K	237.21	–
[2], 320.15 K	240.29	–
[2], 325.15 K	244.91	–
[2], 330.15 K	248.5	–
[2], 335.15 K	252.54	–
[2], 340.15 K	255.29	–
[2], 345.15 K	260.53	–
[2], 350.15 K	261.16	–
[2], 355.15 K	264.99	–
[2], 360.15 K	269.16	–
[2], 365.15 K	272.11	–
[2], 370.15 K	283.19	–
[2], 375.15 K	285.9	–
[2], 380.15 K	289.9	–
[2], 385.15 K	293.81	–
[2], 390.15 K	298.39	–
[2], 395.15 K	303.73	–
[2], 400.15 K	307.64	–
[2], 405.15 K	312.35	–
[2], 410.15 K	314.26	–
[2], 415.15 K	322.84	–
[2], 420.15 K	329.18	–
[2], 425.15 K	333.59	–
[2], 430.15 K	342.59	–
[2], 435.15 K	349.42	–
[2], 440.15 K	359.96	–
